Data set [1] can be described thus: Comparative oral versus nasal pharmacokinetics of midazolam in dogs (plasma, GC assay). It is filed as in vivo, beagle dogs. To be noted: for half-life / Tmax / Cmax: dog, plasma. On the procedure: Air bubbles generated during mixing were removed by centrifugation.
The dose given to each dog was 7.85, 7.89, 7.22, 5.61 mg free base.
GC Assay--for extraction, 0.5 ml of plasma, 100 μl of internal standard (100 ng/ml flurazepam in methanol) and 0.5 ml of 2N sodium hydroxide were vortexed for 5 seconds. Five ml of hexane was then added and the mixture was vortexed for one min. and centrifuges for 4 minutes. […] Fifty μl of hexane/isoamyl alcohol (80:20) was used for reconstitution.
The temperatures for column, injector port and detector were 250°, 310° and 310° C., respectively. The flow rate for argon/methane (95:5) gas was 33 ml/min.

The nature of data set [2]: Comparative oral versus nasal pharmacokinetics of triazolam in beagle dogs (plasma, GC assay). To be noted: for Cmax / half-life / Tmax: dog, plasma. On the procedure: In two comparative studies separated in time by over one week; four healthy male, 2-3 year old beagle dogs received oral and nasal doses of triazolam. They were fasted overnight before each study and food was withheld until the end of the experiment. They were restrained in a dog sling during the studies while blood (3 ml) was withdrawn from each dog through a cannula inserted into the cephalic vein.
Oral Administration Studies: Two 0.5 mg triazolam tablets were given to each dog with 50 ml of water. Blood samples were taken from the cephalic vein at 0 min before administration and 15, 30, 45, 60, 120, 180, 240, 300, 360 and 420 min after administration. The plasma samples were stored frozen until gas chromotographic assay for triazolam.
Nasal Administration Studies: Thirty milligrams of triazolam powder was dissolved in 5 ml of PEG 400 warmed at 55°-60° C. After the solution was cooled to room temperature, an equal volume of 1% methocel J5MS (Dow Chemical Company, Midland, Mich.) solution was mixed with the triazolam solution. Air bubbles generated during mixing were removed by centrifugation. The final concentration of triazolam in the solvent mixture was assayed by an HPLC method. An Altex C18, 4.6×150 mm column was used. The mobile phase contained 60% of 0.05 M KH2 PO4 (pH=6.0, T. J. Baker) and 40% acetonitrile (Fisher Scientific). Flow rate of mobile phase was 1 ml/min. The wavelength used was 221 nm.
Using a metered dose inhaler, triazolam solution was sprayed into both nostrils of the dogs. The dose administered was determined by weighting the bottle containing the triazolam solution before and after spraying. […] Blood sampling times were the same as in the oral study. The plasma samples were frozen until GC assay for triazolam.
GC Assay: To extract triazolam, 0.5 ml of plasma, 50 μl of internal standard (55 ng/ml clonazepam in methanol) and 3 ml of hexane/methylene chloride (4:3) were vortexed together for 15 seconds and centrifuged for 4 minutes. The bottom aqueous layer was frozen by dry ice/acetone and the upper organic layer was transferred to another tube containing 1 ml of distilled water. The mixture was vortexed for 15 seconds and centrifuged for 4 minutes. Two ml of the upper organic layer was then pipetted into another tube and evaporated to dryness in an vortex-evaporator. […] of toluene was used for reconstitution.
The amount of triazolam in 3 ml of extract plasma was assayed by an HP model 5830A GC-EC. The glass column used was a 6'×1/4" 2 mm on column w/o liner 6" coil (Anspec) with 3% OV-17 […] and detector were 275°, 310° and 350° C., respectively. The flow rate for argon/methane (95:5) gas 42 ml/min.

[3] abbreviates: nasal spray, 5.61-7.89 mg free base, individual dog.
Where [4] appears, read: oral, 5 mg free base equivalent, individual dog.

Several values for one entry are separate records, joined by “and”; a condition that tells them apart may be missing. Equal values may be shown once.

On to `Cc1ncc2n1-c1ccc(Cl)cc1C(c1ccccc1F)=NC2` [midazolam], for which the half-life in data set [1] (nasal spray, 5.61-7.89 mg free base, individual dog, read-out: T1/2 NASAL) worked out at 36.1 min; in data set [1] (nasal spray, 5.61-7.89 mg free base, mean of four dogs, read-out: T1/2 NASAL (MEAN)), 33.3 min; in data set [1] (po, 5 mg, oral, 5 mg free base equivalent, mean of four dogs, read-out: T1/2 PO (MEAN)), 33.2 min. Besides, the Tmax in data set [1] (nasal spray, 5.61-7.89 mg free base, individual dog, read-out: TMAX NASAL (converted)) is 15 min; in data set [1] (nasal spray, 5.61-7.89 mg free base, mean of four dogs, read-out: TMAX NASAL (MEAN) (converted)), 15 min; in data set [1] (po, 5 mg, oral, 5 mg free base equivalent, mean of four dogs, read-out: TMAX PO (MEAN) (converted)), 30 min. In addition, the Cmax in data set [1] (nasal spray, 5.61-7.89 mg free base, mean of four dogs, read-out: CMAX NASAL (MEAN)) was determined as 101 ng/mL; in data set [1] (po, 5 mg, oral, 5 mg free base equivalent, mean of four dogs, head marked *, read-out: CMAX PO (MEAN)), 24.5 ng/mL. Moreover, the “Mean half-life in both routes of administration” value in data set [1] (dogs, nasal vs oral) is listed as “about the same”. Also, in data set [1] (dogs, nasal vs oral), the “Tmax after nasal administration earlier than after oral administration” value came out at 2 fold. In addition, in data set [1] (dogs, nasal vs oral, dose-corrected, FIG. 2), the “Plasma levels after nasal administration compared with oral” value is reported as “consistently higher”. Further, the “Mean increase in AUC after nasal administration” value in data set [1] (dogs, nasal vs oral, dose-normalized) stood at 2.5 fold. Further, in data set [1] (dogs, oral vs nasal), the “Cmax after oral administration lower than that of nasal route” value was 4 times. Further, the “AUC NASAL” value in data set [1] (nasal spray, 5.61-7.89 mg free base, dose-normalized, individual dog) was 842.9 ngmin/ml-mg and 520.8 ngmin/ml-mg and 338.5 ngmin/ml-mg and 650.8 ngmin/ml-mg. The “AUC NASAL (MEAN)” value in data set [1] (nasal spray, 5.61-7.89 mg free base, dose-normalized, mean of four dogs) is reported as 588.3 ngmin/ml-mg. Further, in data set [1] (setting [3]), the “CMAX NASAL” value is 159.0 ng/mL and 111.2 ng/mL and 47.1 ng/mL and 87.9 ng/mL. Besides, in data set [1] (setting [3]), the “T1/2 NASAL” value was 26.8 min and 36.5 min and 33.8 min. Moreover, the “AUC PO” value in data set [1] (oral, 5 mg free base equivalent, dose-normalized, individual dog) was 235.6 ngmin/ml-mg and 242.0 ngmin/ml-mg and 157.8 ngmin/ml-mg and 333.2 ngmin/ml-mg. Moreover, the “AUC PO (MEAN)” value in data set [1] (oral, 5 mg free base equivalent, dose-normalized, mean of four dogs) worked out at 242.1 ngmin/ml-mg. For the same compound, in data set [1] (setting [4]), the “T1/2 PO” value was 43.5 min and 50.6 min and 19.4 min and 19.3 min. Moreover, in data set [1] (setting [4]), the “TMAX PO” value was 15.0 min and 45.0 min and 30.0 min.

Turning to `Cc1nnc2n1-c1ccc(Cl)cc1C(c1ccccc1Cl)=NC2` [triazolam], the Cmax in data set [2] (CMAX NASAL (MEAN), nasal spray, 0.9343-1.532 mg, mean of four dogs, ng/ml) was found to be 27.6 ng/mL; in data set [2] (CMAX NASAL, nasal spray, 0.9343-1.532 mg, individual dog, ng/ml), 27.2 ng/mL; in data set [2] (po, 1 mg, CMAX PO (MEAN), two 0.5 mg tablets, mean of four dogs, ng/ml) it was 7 ng/mL; in data set [2] (po, 1 mg, CMAX PO, two 0.5 mg tablets, individual dog, ng/ml) it was 7.6 ng/mL. The half-life in data set [2] (T1/2 NASAL (MEAN), nasal spray, 0.9343-1.532 mg, mean of four dogs) was determined as 57.3 min; in data set [2] (T1/2 NASAL, nasal spray, 0.9343-1.532 mg, individual dog), 62.7 min; in data set [2] (po, 1 mg, T1/2 PO (MEAN), two 0.5 mg tablets, mean of four dogs), 67.5 min. Also, the Tmax is 18.8 min in data set [2] (TMAX NASAL (MEAN), nasal spray, 0.9343-1.532 mg, mean of four dogs, (min)); 15 min in data set [2] (TMAX NASAL, nasal spray, 0.9343-1.532 mg, individual dog, (min)); ~18.8 min in data set [2] (Time of peak mean plasma concentration, nasal, dogs, mean); 48.8 min in data set [2] (po, 1 mg, TMAX PO (MEAN), two 0.5 mg tablets, mean of four dogs, (min)); 45 min in data set [2] (po, 1 mg, TMAX PO, two 0.5 mg tablets, individual dog, (min)); ~48.8 min in data set [2] (po, 1 mg, Time of peak mean plasma concentration, dogs, mean). Besides, the Nasal absorption entry in data set [2] (dogs, nasal) is recorded as “significant nasal absorption”. In data set [2] (dogs, nasal vs oral), the “Mean AUC after nasal administration larger than that of oral route” value stood at 2.4 fold. Besides, the “Mean half-life in both routes of administration” value in data set [2] (dogs, nasal vs oral) is “about the same”. In data set [2] (dogs, nasal vs oral, dose-corrected, FIG. 1), the “Plasma levels after nasal administration compared with oral” value is listed as “consistently higher”. The “Variability of oral plasma concentration-time curve compared with nasal” value in data set [2] (dogs, oral vs nasal, FIG. 1, attributed to gastric emptying of the tablets) is “more variability”. Further, in data set [2] (nasal spray, 0.9343-1.532 mg, individual dog, (min)), the “TMAX NASAL” value was 30.0. Besides, the “CMAX NASAL” value in data set [2] (nasal spray, 0.9343-1.532 mg, individual dog, ng/ml) is 31.20 and 25.20 and 26.60. Further, the “TMAX PO” value in data set [2] (oral, two 0.5 mg tablets, individual dog, (min)) was 60.0 and 30.0. Further, the “CMAX PO” value in data set [2] (oral, two 0.5 mg tablets, individual dog, ng/ml) is 6.10 and 5.50 and 8.70.

These data come from patent publication USRE36744E, “Nasal administration of benzodiazepine hypnotics” (Ribogene, Inc., priority 1994, dated 2000).
